In patent US12152240B2, “Permanent epigenetic gene silencing” (Ospedale San Raffaele S.R.L., priority 2014, dated 2024):

Tests used:
Assay type in all cases: cell-based, human
[1] = system: B2M gene promoter region, HEK-293T cells; assay: B2M silencing in HEK-293T cells (flow cytometry); details: day 7 upon AZA treatment
Excerpt: In order to assess if the results obtained with the eGFP reporter system could also be translated to an endogenous gene embedded in its natural epigenetic context, we generated custom-made TALEs targeting the promoter region of the B2-Microglobulin (B2M) gene (the amino acid sequences of these TALEs and the nucleotide sequences of their corresponding binding sites are listed in Table 3), and fused these TALEs to the KRAB, DNMT3A and DNMT3L effector domains (for a schematic of the system refer to FIG. 13A). The spacer length between the first and the second, or between the second and the third TALE is 1 or 20 bp, respectively. We then co-transfected HEK-293T cells with the plasmids encoding for these novel ATRs and analysed the cells by flow cytometry for B2M expression.
Remarkably, up to 80% of the cells treated with all the ATRs permanently lost B2M surface expression. In parallel experiments, we sorted the B2M-negative and the B2M-positive cells, and analysed them for surface expression of MHC-I molecules, which require B2M to be presented on the plasma membrane. […] Then we assessed if the three effector domains were capable of inducing permanent epigenetic silencing also when targeted to the B2M gene via the RNA-guided CRISPR/Cas9 system. […]
We then assessed if these findings also held true with ATRs based on custom-made DNA binding domains. […]

[2] = system: eGFP-negative (silenced) AAVS1/TetO7 cells; assay: 5-Aza treatment of eGFP-silenced AAVS1/TetO7 cells (flow cytometry); details: 7 days
Protocol: In order to understand if DNA methylation was necessary to maintain the repressive state induced by tetR:D3A, the eGFP-cells from the doxy-conditions in FIG. 2D were treated with either 5-Aza-2′-deoxycytidine (5-Aza) or vehicle (i.e. Dimethyl Sulfoxide, DMSO) and then analysed by flow cytometry to measure eGFP expression. 5-Aza is a cytosine analogue that after becoming incorporated into DNA is recognised by DNA methyltransferase as a substrate, establishing a covalent bond that, contrary to cytosine, is not resolved, thus blocking DNMT activity (Issa, J. P. et al. (2005) Nat. Rev. Drug Discov. Suppl. S6-7).
To test activity of the ATRs, the reporter cell lines were transduced with the ATR-expressing Bid.LV at a MOI of 10, or transfected with plasmids or in vitro transcribed mRNAs expressing the ATRs (4D-Nucleofector™ System; Lonza) according to the manufacturer's instruction for K-562, U937 and NIH/3T3, or using the pulse program EW-113 and the SF solution for B-lymphoblastoid cells. […] The AZA-containing media was replaced every day, and the cells were analysed by flow cytometry at day 4 and 7 after treatment. […] The IFN-γ-containing media was replaced every day, and the cells were analysed by flow cytometry at day 2 and 4 after treatment. […] Two weeks after plating, colonies were counted and identified according to morphological criteria and analysed by flow cytometry.

[3] = system: B2M gene, HEK-293T cells; assay: B2M, OAS1 and B2M locus gene expression in HEK-293T cells (RT-qPCR)
Excerpt: Remarkably, up to 80% of the cells treated with all the ATRs permanently lost B2M surface expression. In parallel experiments, we sorted the B2M-negative and the B2M-positive cells, and analysed them for surface expression of MHC-I molecules, which require B2M to be presented on the plasma membrane. […] Then we assessed if the three effector domains were capable of inducing permanent epigenetic silencing also when targeted to the B2M gene via the RNA-guided CRISPR/Cas9 system. To this aim, we fused in frame to a catalytically dead Cas9 (D10A+H840A; dCas9; amino acid sequence listed in Table 4) the KRAB, the DNMT3A or the DNMT3L effector domains (FIG. 13E; top drawings), and designed 11 guide RNAs (gRNAs; nucleotide sequences listed in Table 4) targeting the promoter region of the B2M gene (FIG. 13E; bottom schematic, arrows indicate the location of the CRISPR/dCas9 target sites). […] We then assessed if B2M silencing was resistant to IFN-γ treatment, a potent inducer of B2M expression (Vraetz, T. et al. (1999) Nephrol. Dial. Transplant. 14:2137-43; Gobin, S. J. et al. (2003) Blood 101:3058-64). […]
In order to assess if silencing induced by our ATRs was associated with the deposition of repressive epigenetic marks on the targeted gene, we analysed the epigenetic state of the B2M gene in wild-type and silenced cells. […]

| Compound | B2M expression after AZA treatment of previously silenced cells [1] | eGFP expression after 5-Aza treatment ([2]; eGFP- cells silenced with tetR:D3A, 1 μM) | eGFP expression after 5-Aza treatment ([2]; eGFP-negative sorted cells from tetR:K/tetR:D3A conditions) | B2M expression upon IFN-γ treatment (transcriptional and protein level) ([3]; 500 U/mL IFN-γ, wild-type or sorted B2M-negative cells) | upregulation of OAS1 gene expression ([3]; IFN-γ treatment, all cell types tested (wild-type and B2M-negative)) |
| --- | --- | --- | --- | --- | --- |
| Nc1ncn([C@H]2C[C@H](O)[C@@H](CO)O2)c(=O)n1 [5-Aza, 5-Aza-2′-deoxycytidine] | re-expression of the B2M gene | full reactivation of eGFP expression | completely reactivated eGFP expression |  |  |
| IFN-γ: a potent inducer of B2M expression |  |  |  | significantly upregulated B2M expression | > 100 fold |
